From patent US10709727B2, “Antiviral drugs” (priority 2015, dated 2020)

System: influenza virus (WSN strain)
Type: cell-based

DOCK11 #2: lentivirus-expressed shRNA against DOCK11 gene, SEQ ID NO: 2, used in Examples 3, 4, 6, 8, 12 (guide CCGGGTACTAGACACCATATCATTTCTCGAGAAATGATATGGTGTCTAGTACTTTTTG)
localization of nucleoproteins of influenza virus in the nucleus of the host cell: suppressed
